≈ marks a conversion by molar mass, not a printed value. Where two headings read alike, the source gives them in different places.
Assays:
physchem [1] = details: organic solvent or mixture, thermodynamic from solid
Enterococcus ATCC 19433 = experiment: organism not typed; type: cell-based, E. faecalis; details: ATCC 19433, E. faecalis; gyrA WT, parC WT; read-out: MIC
A. baumannii KB304 = experiment: MIC, microdilution broth; type: cell-based; details: Acinetobacter baumannii
Description: (§1) E. coli MG1655 and the ΔAcrB strain were obtained from Prof. Cari Vanderpool at UIUC.
(§2) Susceptibility testing was performed in triplicate using the microdilution broth method as outlined by the Clinical and Laboratory Standards Institute CLSI^52. MH broth was used.

A. baumannii KB349 = experiment: MIC, microdilution broth; type: cell-based; details: Acinetobacter baumannii
Description: as §1, §2

[2] = tested on: VRE clinical isolate U563; experiment: organism not typed; type: cell-based, E. faecium
Description: (§3) QRDR mutations were determined as described in the text using primers (primer sequences can be found in Table 7).
as §2

VRE clinical isolate S34 = experiment: organism not typed; type: cell-based, E. faecium
Description: as §3, §2

[3] = tested on: VRE clinical isolate U503; experiment: organism not typed; type: cell-based, E. faecium
Description: as §3, §2

VRE clinical isolate U63 = experiment: organism not typed; type: cell-based, E. faecium
Description: as §3, §2

in vivo = details: female, C57BL/6, mouse, po
Description: As a prelude to exploring in vivo efficacy, the toxicity and pharmacokinetic profile of DNM and key derivatives was evaluated.
The animal studies (PK, in vivo toxicity and in vivo efficacy) were carried out in strict accordance with the recommendations in the Guide for the Care and Use of Laboratory Animals of the National Institutes of Health. […] In these studies, 10-12 week old female C57BL/6 mice purchased from Charles River were used. DNM, DNM-2, and DNM-3 were formulated as slurries at 8.3 mg mL^−1 in 25% Cremophor RH40/water (v/v). Before beginning the pharmacokinetic assessment, mice were first tested for their ability to tolerate the DNM, DNM-2, and DNM-3 at 50 mg kg^−1 (p.o.). […] . At specified time points, mice were sacrificed and blood was collected, centrifuged, and the serum was frozen at −80° C. until analysis. The proteins in a 50 μL aliquot of serum were precipitated by the addition of 50 μL of acetonitrile and the sample was centrifuged to remove the proteins. Serum concentrations of DNM, DNM-2, and DNM-3 were determined by HPLC. PK parameters were determined using GraphPad Prism Version 5.00 for Windows.

[4] = tested on: S. aureus 29213 (WT GyrA and WT ParC); experiment: microbe, parasite or virus in culture; type: cell-based; details: for MIC: Staphylococcus aureus, WT GyrA and WT ParC, read-out: MIC against S. aureus 29213
Description: as §2

[5] = tested on: VRE clinical isolate S206; experiment: organism not typed; type: cell-based, E. faecalis
Description: as §3, §2

[6] = tested on: MRSA clinical isolate SAU.494; experiment: microbe, parasite or virus in culture; type: cell-based, S. aureus; details: Staphylococcus aureus, read-out: MIC
Description: as §2

[7] = tested on: MRSA clinical isolate SAU.493; experiment: microbe, parasite or virus in culture; type: cell-based, S. aureus; details: Staphylococcus aureus, read-out: MIC
Description: as §2

[8] = tested on: MRSA clinical isolate SAU.492; experiment: microbe, parasite or virus in culture; type: cell-based, S. aureus; details: Staphylococcus aureus, read-out: MIC
Description: as §2

[9] = tested on: MRSA clinical isolate SAU.709; experiment: microbe, parasite or virus in culture; type: cell-based, S. aureus; details: Staphylococcus aureus, read-out: MIC
Description: as §2

[10] = tested on: MRSA clinical isolate SAU.491; experiment: microbe, parasite or virus in culture; type: cell-based, S. aureus; details: Staphylococcus aureus, read-out: MIC
Description: as §2

[11] = tested on: MRSA clinical isolate SAU.489; experiment: microbe, parasite or virus in culture; type: cell-based, S. aureus; details: Staphylococcus aureus, read-out: MIC
Description: as §2

[12] = tested on: MRSA clinical isolate SAU.708; experiment: microbe, parasite or virus in culture; type: cell-based, S. aureus; details: Staphylococcus aureus, read-out: MIC
Description: as §2

[13] = tested on: MRSA clinical isolate SAU.495; experiment: microbe, parasite or virus in culture; type: cell-based, S. aureus; details: Staphylococcus aureus, read-out: MIC
Description: as §2

[14] = tested on: MRSA clinical isolate SAU.496; experiment: microbe, parasite or virus in culture; type: cell-based, S. aureus; details: Staphylococcus aureus, read-out: MIC
Description: as §2

[15] = tested on: MRSA clinical isolate SAU.710; experiment: microbe, parasite or virus in culture; type: cell-based, S. aureus; details: Staphylococcus aureus, read-out: MIC
Description: as §2

E. coli ATCC 25922 = experiment: microbe, parasite or virus in culture; type: cell-based; details: Escherichia coli, ATCC25922, gyrA none, parC none
Description: as §1, §2

A. baumannii ATCC 19606 = experiment: microbe, parasite or virus in culture; type: cell-based; details: Acinetobacter baumannii, ATCC19606, gyrA none, parC none
Description: as §1, §2

P. aeruginosa PAO1 = experiment: microbe, parasite or virus in culture; type: cell-based; details: Pseudomonas aeruginosa, gyrA none, parC none
Description: as §1, §2

VRE clinical isolates = experiment: Panel of VRE clinical isolates (FIG. 2B); type: cell-based, Enterococcus; details: n=22, in words
[16] = tested on: VRE clinical isolate C28036; experiment: microbe, parasite or virus in culture; type: cell-based, Ent. Spp.; details: Enterococcus
Description: as §3, §2

physchem [17] = details: pH 7.4 PBS; three replicates ± SEM
Description: Enough PBS was added to make a 1 mg/mL solution. Compounds were then assessed by LC-MS and compared to a calibration curve to determine the solubility. […] Data shown is from three independent replicates±SEM. […] Between DMSO additions, the vial was vortexed and sonicated.
The compound was vortexed for ˜30 seconds before being placed into a bath sonicator (Cole Parmer, ultrasonic cleaner) for 1 h. […] The tubes were vortexed again for 30 s before being centrifuged at maximum speed (13,000×g) for 10 minutes. The supernatant was then filtered through a 0.22 μm syringe filter (Millipore Millex MP). […] Three independent replicates of each compound were performed. A calibration curve for each compound was generated from 1-400 μM by dissolving the compound in DMSO and making dilutions of the stock in DMSO. […] The concentration of the samples was calculated based on the calibration curves.

[18] = tested on: high level CIP resistant strains of S. aureus ATCC 29213 (S84L GyrA); experiment: microbe, parasite or virus in culture; type: cell-based; details: Staphylococcus aureus, ATCC29213
Enterococcus ATCC 29212 = experiment: organism not typed; type: cell-based, E. faecalis; details: ATCC 29212, E. faecalis, gyrA WT, parC WT

SMILES	solubility (physchem [1]) [µM]	MIC (Enterococcus ATCC 19433) [µg/mL]	MIC (A. baumannii KB304) [µg/mL]	MIC (A. baumannii KB349) [µg/mL]	MIC [2] [µg/mL]	MIC (VRE clinical isolate S34) [µg/mL]	MIC [3] [µg/mL]	MIC (VRE clinical isolate U63) [µg/mL]	MTD (in vivo) [mg/kg]	MIC [4] [µg/mL]	MIC [5] [µg/mL]	MIC [6] [µg/mL]	MIC [7] [µg/mL]	MIC [8] [µg/mL]	MIC [9] [µg/mL]	MIC [10] [µg/mL]	MIC [11] [µg/mL]	MIC [12] [µg/mL]	MIC [13] [µg/mL]	MIC [14] [µg/mL]	also measured
Cc1cc(=O)n(C)c2c3c4c(cc12)c(C)cc(=O)n4CO3 [DNM, deoxynybomycin]	200 (≈ 56.5 µg/mL)	> 1	> 4	> 4	> 1	1 (≈ 3.54 µM)	> 1	1 (≈ 3.54 µM)	> 50	> 1	1 (≈ 3.54 µM)	0.063 (≈ 0.223 µM)	0.063 (≈ 0.223 µM)	0.063 (≈ 0.223 µM)	0.063 (≈ 0.223 µM)	0.125 (≈ 0.443 µM)	0.031 (≈ 0.11 µM)	0.063 (≈ 0.223 µM)	0.063 (≈ 0.223 µM)	0.063 (≈ 0.223 µM)	activity against FQ-sensitive strain 29213 ([4]; in words): modest activity; MIC [15]: 0.031 µg/mL (≈ 0.11 µM); MIC (E. coli ATCC 25922): > 4 µg/mL; MIC (A. baumannii ATCC 19606): > 4 µg/mL; MIC (P. aeruginosa PAO1): > 4 µg/mL; sensitivity of VRE clinical isolates (VRE clinical isolates): sensitive; MIC [16]: 0.25 µg/mL (≈ 0.886 µM); Solubility in pH 7.4 PBS (physchem [17]): 9 μM; MIC [18]: 0.03 to 0.06 µg/mL (≈ 0.106 to 0.213 µM); MIC (Enterococcus ATCC 29212): >1 µg/mL; MIC (Enterococcus ATCC 29212; read-out: MIC): > 1 µg/mL
CCn1c(=O)cc(C)c2cc3c(C)cc(=O)n4c3c(c21)OC4 [DNM-2]	4000 (≈ 1190 µg/mL)	8 (≈ 27 µM)	> 24	> 24	2 (≈ 6.75 µM)	1 (≈ 3.37 µM)	4 (≈ 13.5 µM)	4 (≈ 13.5 µM)	> 50	8 (≈ 27 µM)	2 (≈ 6.75 µM)	0.125 (≈ 0.422 µM)	0.125 (≈ 0.422 µM)	0.125 (≈ 0.422 µM)	0.125 (≈ 0.422 µM)	0.125 (≈ 0.422 µM)	0.125 (≈ 0.422 µM)	0.125 (≈ 0.422 µM)	0.125 (≈ 0.422 µM)	0.125 (≈ 0.422 µM)	MIC [15]: 0.063 µg/mL (≈ 0.213 µM); MIC (E. coli ATCC 25922): > 24 µg/mL; MIC (A. baumannii ATCC 19606): > 24 µg/mL; MIC (P. aeruginosa PAO1): > 24 µg/mL; sensitivity of VRE clinical isolates (VRE clinical isolates): sensitive; MIC [16]: 0.5 µg/mL (≈ 1.69 µM); Solubility in pH 7.4 PBS (physchem [17]): 121 μM; MIC [18]: 0.06 to 0.12 µg/mL (≈ 0.202 to 0.405 µM); MIC (Enterococcus ATCC 29212; read-out: MIC): 8 µg/mL (≈ 27 µM)

From patent US9920069B2, “Compounds for treatment of fluoroquinolone-resistant bacteria” (The Board of Trustees of the University of Illinois, priority 2014, dated 2018)
